Measured values as given in PubChem BioAssay AID2060909 (Molecular Pharmacology Branch, DTP, NCI, 2025).

System: 362531-283-R-J2-PDC complex spheroid viability
Test: Anticancer human tumor 362531-283-R-J2-PDC patient-derived colon adenocarcinoma cell line growth inhibition [RAS]
Conditions: for IC50: curve of first compound; for viability, T/C: stronger effect = lower value
In short: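 Tumour cells grown as complex spheroids with HUVEC endothelial cells and mesenchymal stem cells, treated with RAS pathway inhibitor combinations. Each agent spans half-log steps from near clinical Cmax, or 10 microM where Cmax is unknown.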
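Also: spheroids exposed to the agents for 7 days before readout.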
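For viability, T/C in this document: luminescence viability as percent of DMSO vehicle control wells.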

IC50 (second compound 0.000949 µM): > 1000 nM | IC50 (second compound 0.003 µM): > 1000 nM | IC50 (second compound 0.00949 µM): > 1000 nM | IC50 (second compound 0.03 µM): > 1000 nM | IC50 (second compound 0.0949 µM): > 1000 nM | IC50 (second compound 0.3 µM): > 1000 nM
SMILES: C=CC(=O)N1CCN(c2nc(OCC3CCCN3C)nc3c(F)c(-c4nc(N)cc(C)c4C(F)(F)F)c(Cl)cc23)C(C)C1 (configuration not stated) + CCn1c(-c2cccnc2C(C)OC)c2c3cc(ccc31)N1CCOC(CC(NC(=O)C(C(C)C)N(C)C(=O)C3(F)CCN(C(=O)C#CC(C)(C)N(C)C)CC3)C(=O)N3CCCC(N3)C(=O)OCC(C)(C)C2)C1
viability, T/C (second compound 0.000949 µM, first compound 0.00316 µM): 98.9% | viability, T/C (second compound 0.000949 µM, first compound 0.01 µM): 106% | viability, T/C (second compound 0.000949 µM, first compound 0.0316 µM): 106% | viability, T/C (second compound 0.000949 µM, first compound 0.1 µM): 97% | viability, T/C (second compound 0.000949 µM, first compound 0.316 µM): 107% | viability, T/C (second compound 0.000949 µM, first compound 1 µM): 95.2% | viability, T/C (second compound 0.003 µM, first compound 0.00316 µM): 111% | viability, T/C (second compound 0.003 µM, first compound 0.01 µM): 104% | viability, T/C (second compound 0.003 µM, first compound 0.0316 µM): 98.5% | viability, T/C (second compound 0.003 µM, first compound 0.1 µM): 92.4% | viability, T/C (second compound 0.003 µM, first compound 0.316 µM): 96.1% | viability, T/C (second compound 0.003 µM, first compound 1 µM): 91.8% | viability, T/C (second compound 0.00949 µM, first compound 0.00316 µM): 101% | viability, T/C (second compound 0.00949 µM, first compound 0.01 µM): 122% | viability, T/C (second compound 0.00949 µM, first compound 0.0316 µM): 97.2% | viability, T/C (second compound 0.00949 µM, first compound 0.1 µM): 100% | viability, T/C (second compound 0.00949 µM, first compound 0.316 µM): 101% | viability, T/C (second compound 0.00949 µM, first compound 1 µM): 98.8% | viability, T/C (second compound 0.03 µM, first compound 0.00316 µM): 100% | viability, T/C (second compound 0.03 µM, first compound 0.01 µM): 117% | viability, T/C (second compound 0.03 µM, first compound 0.0316 µM): 87% | viability, T/C (second compound 0.03 µM, first compound 0.1 µM): 96.2% | viability, T/C (second compound 0.03 µM, first compound 0.316 µM): 101% | viability, T/C (second compound 0.03 µM, first compound 1 µM): 106% | viability, T/C (second compound 0.0949 µM, first compound 0.00316 µM): 93.6% | viability, T/C (second compound 0.0949 µM, first compound 0.01 µM): 95.7% | viability, T/C (second compound 0.0949 µM, first compound 0.0316 µM): 103% | viability, T/C (second compound 0.0949 µM, first compound 0.1 µM): 101% | viability, T/C (second compound 0.0949 µM, first compound 0.316 µM): 95.6% | viability, T/C (second compound 0.0949 µM, first compound 1 µM): 113% | viability, T/C (second compound 0.3 µM, first compound 0.00316 µM): 100% | viability, T/C (second compound 0.3 µM, first compound 0.01 µM): 109% | viability, T/C (second compound 0.3 µM, first compound 0.0316 µM): 108% | viability, T/C (second compound 0.3 µM, first compound 0.1 µM): 103% | viability, T/C (second compound 0.3 µM, first compound 0.316 µM): 94.4% | viability, T/C (second compound 0.3 µM, first compound 1 µM): 100%
